Where a name gives a salt, the structure may show the parent alone.
Test system: eyelids
Assay: topical application to the eyelids (eyelid retraction / eye-widening)
Assay type: in vivo
Conditions: topically applied, alone or in combination
Source text: Topical treatments to which the current application is directed include ointments, creams, and solutions that contain one or more of the compounds travoprost, dorzolamide hydrochloride, and timolol maleate, alone or in combination, and/or one or more chemically-related compounds and may also include pure forms of various types of prostaglandin, synthetic prostaglandin, and synthetic prostaglandin analogues.

Row | SMILES | eyelid retraction after topical application to the eyelids
1 | CCNC(=O)CCCC=CCC1C(O)CC(O)C1C=CC(O)CCc1ccccc1 (stereo not drawn) [bimatoprost, 7-[3,5-dihydroxy-2-(3-hydroxy-5-phenyl-pent-1-enyl)-cyclopentyl]-N-ethyl-hept-5-enamide] | cause the eyelids to retract more completely
2 | CCCCCCCC(=O)CC[C@@H]1[C@@H](C/C=C\CCCC(=O)OC(C)C)[C@@H](O)C[C@H]1O [unoprostone, isopropyl (Z)-7-[(1R,2R,3R,5 S)-3,5-dihydroxy-2-(3-oxodecyl)cyclopentyl] hept-5-enoic acid] | cause the eyelids to retract more completely
3 | CC(C)OC(=O)CCC/C=C\C[C@@H]1[C@@H](CC[C@@H](O)CCc2ccccc2)[C@H](O)C[C@@H]1O [latanoprost, isopropyl (Z)-7-[(1R,2R,3R,5S)-3,5-dihydroxy-2-[(3R)3-hydroxy-5-phenylpentyl]-cyclopentyl] hept-5-enoate] | cause the eyelids to retract more completely
4 | CCN[C@H]1C[C@H](C)S(=O)(=O)c2sc(S(N)(=O)=O)cc21 [dorzolamide hydrochloride, (4S,6S)-2-ethylamino-4-methyl-5,5-dioxo-5λ^6,7dithiabicyclo[4.3.0] nona-8,10-diene-8-sulfonamide] | cause the eyelids to retract more completely
5 | CC(C)OC(=O)CCCC=CCC1C(O)CC(O)C1C=CC(O)COc1cccc(C(F)(F)F)c1 (stereo not drawn) [travoprost, propan-2-yl 7-[3,5-dihydroxy-2-[3-hydroxy-4-[3-(trifluoromethyl)phenoxy]-but-1-enyl]-cyclopentyl]hept-5-enoate] | cause the eyelids to retract more completely
6 | CC(C)(C)NC[C@H](O)COc1nsnc1N1CCOCC1 [timolol maleate, (S)-1-(tert-butylamino)-3-[(4-morpholin-4-yl-1,2,5-thiadiazol-3-yl)oxy]propan-2-ol] | cause the eyelids to retract more completely

— patent publication US20140303166A1, “COSMETIC METHOD FOR CHANGING THE APPEARANCE OF EYES” (priority 2013, published 2014)
